Measured values from patent EP4755889A1, “COMPOUND FOR DETECTING AMYLOID-BETA OLIGOMER AND METHOD FOR DIAGNOSING DEGENERATIVE BRAIN DISEASE USING SAME” (Amyloid Solution Inc., priority 2024, dated 2025).

Legend:
[1] = target: T1, Aβ oligomers (oAβ) (Homo sapiens, UniProt P05067); assay: Fluorescence on plate-immobilized Aβ monomers and oligomers; assay type: binding; conditions: mAβ and oAβ at 10 µM each immobilized on a plate; IK15j (100 µM) for 24 hours
T1 construct: Full-length and fragmented peptides of Aβ1-42 were individually dissolved in DMSO
Experimental: (§1) Briefly, to remove the bovine serum albumin coating from the plate, each well of the plate was washed three times with 200 µL of wash buffer (0.1 M sodium phosphate, 0.15 M sodium chloride, 0.05 % Tween-20, pH 7.2). Full-length and fragmented peptides of Aβ1-42 were individually dissolved in DMSO to prepare […] stock solutions, which were then diluted with binding buffer (0.1 M sodium phosphate, 0.15 M sodium chloride, 10 mM EDTA, pH 7.2) to prepare 50 µg/mL peptide solutions (5 % DMSO). 100 µL of the peptide solution was added to each well and allowed to react with the maleimide at room temperature overnight. After peptide immobilization, unbound peptides were removed by washing three times with 200 µL of wash buffer. […]
In addition, considering that EPPS might interfere with the interaction between IK15j and Aβ monomers, Aβ monomers and oligomers were immobilized on a plate according to the Aβ immobilization protocol of Reference Example 2, and then incubated with IK15j. Briefly, Aβ monomers (mAβ) and Aβ oligomers (oAβ) at 10 µM each were immobilized on a plate, treated with IK15j (100 µM) for 24 hours, and the fluorescence intensity was then measured; blank wells were treated with IK15j (100 µM) alone without immobilization of Aβ species.

[2] = target: T2, Aβ1-42 oligomers (Homo sapiens, UniProt P05067); assay: Selectivity for Aβ1-42 over tau domain (fluorescence); assay type: binding; conditions: tau repeat domain 3 aggregates
T2 construct: Aβ1-42 peptide was aggregated at 37 °C for 8 hours
Experimental: Considering that tau protein aggregation is also a major pathological feature of AD, the selectivity of IK15j for Aβ1-42 over tau domains was further evaluated. […] Since repeat domain 3 is a core region of tau aggregates, IK15j was incubated with the tau domain or with Aβ1-42, and the resulting changes in fluorescence intensity were compared. Briefly, Aβ1-42 and tau aggregate samples were each treated with IK15j, and the fluorescence intensity was measured. As a result, the signal of IK15j increased in the presence of Aβ1-42 oligomers compared to that of the tau domain (FIG. 3E).

[3] = system: Aβn-(n+5) (n = 1 to 37); assay: Mapping Amyloid Plate (MAP): binding to immobilized Aβ1-42 hexamer fragments; conditions: MAP treated with IK15j for 24 hours
Experimental: (§2) A Mapping Amyloid Plate (MAP) for investigating the target site of the compound of the present disclosure on Aβ1-42 fragments or Aβ1-42 oligomers was prepared with reference to Korean Patent Application No. 10-2023-0133625, which is incorporated herein by reference in its entirety.
as §1
Two conditions were prepared to confirm whether the compound of the present disclosure targets the structure or the sequence of Aβ oligomers. […] The fluorescence intensity of both plates was measured using a microplate reader (λex = 285 nm/λem = 475 nm). […]

[4] = target: T3, Aβ1-42-Aβn-(n+5) complexes (Homo sapiens, UniProt P05067); assay: Mapping Amyloid Plate (MAP): binding to complexes of Aβ1-42 with fragments
T3 construct: full-length Aβ1-42 peptide was added to the MAP and incubated at 37 °C for 8 hours
Experimental: as §2
Briefly, to remove the bovine serum albumin coating from the plate, each well of the plate was washed three times with 200 µL of wash buffer (0.1 M sodium phosphate, 0.15 M sodium chloride, 0.05 % Tween-20, pH 7.2). Full-length and fragmented peptides of Aβ1-42 were individually dissolved in DMSO to prepare […] stock solutions, which were then diluted with binding buffer (0.1 M sodium phosphate, 0.15 M sodium chloride, 10 mM EDTA, pH 7.2) to prepare 50 µg/mL peptide solutions (5 % DMSO). 100 µL of the peptide solution was added to each well and allowed to react with the maleimide at room temperature overnight. After peptide immobilization, unbound peptides were removed by washing three times with 200 µL of wash buffer. To inactivate residual maleimide groups, 200 µL of a cysteine solution (10 µg/mL in binding buffer) was added to each well and incubated at room temperature for 1 hour. After cysteine capping, all wells of the plate were washed three times with 200 µL of wash buffer.
Two conditions were prepared to confirm whether the compound of the present disclosure targets the structure or the sequence of Aβ oligomers. First, the compound of the present disclosure (50 µM) was prepared in binding buffer (10 % DMSO), and 100 µL of the compound was added to the MAP and treated for 24 hours at room temperature. After incubation, all wells were washed three times with 200 µL of wash buffer. Second, full-length Aβ1-42 peptide was added to the MAP and incubated at 37 °C for 8 hours to form complexes between full-length Aβ1-42 and fragmented Aβ1-42. […] The fluorescence intensity of both plates was measured using a microplate reader (λex = 285 nm/λem = 475 nm). […]

[5] = target: T4, Aβ oligomers (Homo sapiens, UniProt P05067); assay: Detection of Aβ oligomers spiked into human plasma; assay type: binding; conditions: IK15j (100 µM) for 8 hours
T4 construct: Aβ1-42 peptide was aggregated at 37 °C for 8 hours
Experimental: Aβ1-42 peptide (1,000, 100, 10, 1, 0.1, 0.01, and 0.001 pg/mL) was aggregated at 37 °C for 8 hours and added to human plasma (Sigma-Aldrich, USA). Then, each plasma sample was treated with the compound of the present disclosure (100 µM) for 8 hours at room temperature. The signal of each sample was detected using a microplate reader (λex = 285 nm / λem = 475 nm).
To investigate whether the compound of the present disclosure interacts with Aβ oligomers in plasma, Aβ oligomers were spiked into human plasma (at 100, 10, 1, 0.1, 0.01, 0.001, and 0 pg/mL) and treated with IK15j (100 µM) for 8 hours, as described in Reference Example 9.

[6] = target: T5, Aβ oligomer-albumin complex (Homo sapiens, UniProt P05067); assay: Plate-immobilized Aβ oligomer-albumin complexes versus Aβ oligomers; assay type: binding; conditions: immobilized on a plate; IK15j (25 µM)
T5 construct: purchased Sigma-Aldrich (albumin)
Experimental: Full-length Aβ1-42 peptide was immobilized on a maleimide-activated microplate. Then, the plate was treated with additional Aβ1-42 peptide (10 µM) at 37°C for 8 hours. After peptide immobilization, unbound peptides were removed by washing three times with 200 µL of wash buffer. To form albumin-Aβ oligomer complexes, the plate was treated with albumin (10 µM, Sigma-Aldrich, USA) at room temperature for 24 hours, and unbound residues were removed by washing three times with 200 µL of wash buffer. The control Aβ oligomer wells were not treated with albumin. Each well was treated with the compound of the present disclosure (100 µM), and the signal of each sample was detected using a microplate reader (λex = 285 nm / λem = 475 nm).
Subsequently, both wells were treated with IK15j (25 µM), and the signals were compared (FIG. 9D).

[7] = MAP incubated with additional Aβ1-42 for 8 hours, then IK15j for 24 hours

T3 sequence (P05067 672-713, one chain of several): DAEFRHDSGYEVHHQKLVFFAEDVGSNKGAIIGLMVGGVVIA
T4 sequence (P05067 672-713): as the sequence (P05067 672-713, one chain of several) above
T5 sequence (P05067 672-713, one chain of several): as above
T2 sequence (P05067 672-713): as the sequence (P05067 672-713, one chain of several) above
T1 sequence (P05067 672-713): as the sequence (P05067 672-713, one chain of several) above

## Cc1ccc2c(c1)c(-c1ccccc1)cn1c(C)cc(C#N)c21 [IK15j, 3,8-dimethyl-6-phenylpyrrolo[2,1-a]isoquinoline-1-carbonitrile]
[1]
  fluorescence signal with Aβ oligomers in contrast to Aβ monomers: markedly increased
[2]
  signal in the presence of Aβ1-42 oligomers compared to the tau domain: increased
[3]
  signal in Aβ fragments compared to Aβ1-42: increase in IK15j signal was observed in 10 Aβ fragments (Aβ14-19 to Aβ23-28)
[3]; heatmap
  signal across all Aβ fragments: relatively low across all fragments
[4]; MAP complexes
  binding affinity for the N-terminus of Aβ, Aβ1-8 (DAEFRHDS): moderate binding affinity
[4]; [7]
  binding to complexes of Aβ1-42 with Aβ19-25 (FFAEDVG) and Aβ35-42 (MVGGVVIA): bound strongly
  overall signal in the presence of Aβ1-42-Aβn-(n+5) complexes: increased
[5]; 1 pg/mL Aβ oligomers spiked
  signal in spiked human plasma compared to blank human plasma (0 pg/mL): increased significantly
[5]; 10-100 pg/mL Aβ spiked human plasma samples
  increase in fluorescence intensity compared to the control: 52%
[6]
  fluorescence intensity, Aβ oligomer-albumin complex versus Aβ oligomers alone: no significant difference in fluorescence intensity
